Test results from article doi:10.1101/2025.04.25.650653, “Hierarchical small molecule inhibition of MYST acetyltransferases” (bioRxiv, 2025).

Tested on: histone modifications in MCF-7 cells
Assay: Histone modification analysis by bottom-up LC-MS/MS
Format: cell-based
Conditions: for Average ratio, H2A1_12_17 unmod (AKAKTR): peptide H2A1_12_17 unmod; for Average ratio, H2A1_12_17 unmod (AKAKTR) / Average ratio, H2A3_12_17 K15me1 (AKAKSR) / Ratio, H2A1_12_17 unmod / Ratio, H2A3_12_17 K15me1: MCF-7; for Average ratio, H2A1_12_17 unmod (AKAKTR) / Average ratio, H2A3_12_17 K15me1 (AKAKSR): average of 3 replicates; for Average ratio, H2A3_12_17 K15me1 (AKAKSR): peptide H2A3_12_17 K15me1
Source text: In this approach. […] Histones are then extracted from cell pellets and chemically derivatized with propionic anhydride, digested with trypsin, subjected to a second round of propionylation, and analyzed by LC-MS/MS. Measuring the relative intensity of modified versus unmodified forms of individual histone peptides enables simultaneous monitoring of multiple potential biomarkers of MYST inhibition. To minimize false positives, we focused on abundant and reproducible modifications (average stoichiometry of greater than 1% across triplicate samples, standard deviation less than or equal to the average measurement). To account for potential histone modification crosstalk, changes in both acetylated and methylated peptides were evaluated. 38 modified peptides passed this reproducible detection threshold including several established KAT biomarkers[41] including H3K9Ac (KAT2A/B), H3K18Ac (KAT3A/B), H3K14Ac (KAT7), H3K23Ac (KAT6A/B), H4K16Ac (KAT8), and H2A.ZK4/K7Ac (KAT5; Fig. 4B).
Histone modification analysis
MCF-7 cells were cultured at 37 °C under 5% CO2 in EMEM (Quality Biological, 112-016-101) with 0.01 mg/mL human recombinant insulin (Sigma Aldrich, 91077C), 2 mM L-glutamine (Quality Biological, 118- […]
human recombinant insulin.
1119, WM-3835). Following 24 h inhibitor treatment, cells were washed with ice-cold 1× PBS and scraped in 150 µL of Nuclear Isolation Buffer (NIB) containing 0.1% NP-40 for histone extraction using a modified protocol from the Garcia laboratory. 9 Briefly, cell suspensions were incubated on ice for 5 minutes, and […]
nuclei were pelleted by centrifugation (600 rcf, 4°C, 5 min). Pelleted nuclei were washed twice with 150 μL of detergent-free NIB buffer, followed by centrifugation (600 rcf, 4°C, 5 min) to remove all detergent.
Nuclei were then resuspended in 400 μL of 0.4 N H₂SO₄ and rotated at 4°C overnight for acid extraction of histones. The following day, samples were centrifuged (11,000 rcf, 4°C, 10 min) and the histone-containing supernatant was transferred to a fresh tube. Trichloroacetic acid (100% TCA) was added to achieve a final concentration of 20% (v/v), tubes were inverted once to mix, and histone precipitation was performed on ice for at least 3 hours or overnight at 4°C. Precipitated histones were collected by centrifugation (11,000 rcf, 4°C, 10 min) and the supernatant carefully removed, leaving a visible film of histones on the tube wall or bottom. Histone pellets were subjected to sequential washes with 1 mL of ice-cold acidified acetone (0.1% 12 N HCl) followed by 1 mL of 100% ice-cold acetone, with centrifugation (11,000 rcf, 4°C, 5 min) after each wash. Samples were air-dried at room temperature, resuspended in 40 µL of ddH₂O, and protein […]
analysis, 1-2 µg of purified histones were loaded per lane and processed according to the general immunoblotting protocol described in General Materials and Methods.
Analysis of histone modifications by LC-MS/MS
Preparation of histone samples for LC-MS/MS was performed analogously to the procedure for immunoblotting above, with the following modifications. MCF7 cells (4.2 × 106) were seeded in 15 cm dishes and treated with PF-9363 or vehicle. Experiments were performed in triplicate. Following treatment and PBS washing, cells were scraped and collected in 15 mL falcon tubes, pelleted (500 rcf, 4°C, 5 min), resuspended in 1 mL cold PBS, transferred to microcentrifuge tubes, and pelleted again before flash-freezing in liquid nitrogen for storage at -80°C. For extraction, cell pellets (~100 μL) were resuspended in NIB buffer at a 1:10 ratio, and cells were lysed with NIB buffer containing 0.2% NP-40 for 8 minutes on ice. Nuclei were pelleted at 1,000 rcf for 8 minutes and washed three times with 500 μL detergent-free NIB buffer. Histones were extracted using 800 μL of 0.2 M H₂SO₄, and after centrifugation (3,400 rcf, 4°C, 10

## COc1cccc(OC)c1S(=O)(=O)Nc1noc2cc(Cn3cccn3)cc(OC)c12 [PF-9363]
PF-9363 (0.1 mM)
  Average ratio, H2A1_1_11 K5ac: 0.8521
  Average ratio, H2A1_4_11 K5ac: 0.0421
  Average ratio, H2A1_4_11 K9ac: 0.0404
  Average ratio, H2A1_4_11 unmod: 0.9065
  Average ratio, H2A1_36_42 unmod: 0.9991
  Average ratio, H2A3_36_42 unmod: 1.0000
  Average ratio, H2AJ_4_11 K5acK9ac: 0.8702
  Average ratio, H2AV_1_19 K4ac: 0.0404
  Average ratio, H2AV_1_19 unmod: 0.8917
  Average ratio, H2AX_36_42 unmod: 1.0000
  Average ratio, H2AZ_1_19 K11ac: 0.0091
  Average ratio, H2AZ_1_19 unmod: 0.8729
  Average ratio, H3_73_83 K79me1: 0.0887
  Average ratio, H3_73_83 K79me2: 0.0735
  Average ratio, H3_73_83 unmod: 0.8364
  Average ratio, H4_4_17 K12acK16ac: 0.0092
  Average ratio, H4_4_17 unmod: 0.6321
  Average ratio, H4_20_23 K20me1: 0.0308
  Average ratio, H4_20_23 unmod: 0.0293
  Average ratio, H2A1_12_17 unmod (AKAKTR): 0.4892
  Average ratio, H2A3_12_17 K15me1 (AKAKSR): 0.4715
PF-9363 (30 mM)
  Average ratio, H2A1_1_11 K5ac: 0.8566
  Average ratio, H2A1_4_11 K5ac: 0.0480
  Average ratio, H2A1_4_11 K9ac: 0.0347
  Average ratio, H2A1_4_11 unmod: 0.9114
  Average ratio, H2A1_36_42 unmod: 0.9988
  Average ratio, H2A3_36_42 unmod: 1.0000
  Average ratio, H2AJ_4_11 K5acK9ac: 0.8922
  Average ratio, H2AV_1_19 K4ac: 0.0413
  Average ratio, H2AV_1_19 unmod: 0.7807
  Average ratio, H2AX_4_11 unmod: 0.3301
  Average ratio, H2AX_36_42 unmod: 1.0000
  Average ratio, H2AZ_1_19 K11ac: 0.0141
  Average ratio, H2AZ_1_19 unmod: 0.9481
  Average ratio, H3_73_83 K79me1: 0.0821
  Average ratio, H3_73_83 K79me2: 0.0558
  Average ratio, H3_73_83 unmod: 0.8605
  Average ratio, H4_4_17 K12acK16ac: 0.1819
  Average ratio, H4_4_17 unmod: 0.4341
  Average ratio, H4_20_23 K20me1: 0.0237
  Average ratio, H4_20_23 unmod: 0.0213
  Average ratio, H2A1_12_17 unmod (AKAKTR): 0.5017
  Average ratio, H2A3_12_17 K15me1 (AKAKSR): 0.4920
Replicate 1, PF-9363 0.1
  Ratio, H2A1_12_17 unmod: 0.4969
  Ratio, H2A3_12_17 K15me1: 0.4799
Replicate 1, PF-9363 1
  Ratio, H2A1_12_17 unmod: 0.5198
  Ratio, H2A3_12_17 K15me1: 0.5023
Replicate 1, PF-9363 10
  Ratio, H2A1_12_17 unmod: 0.4982
  Ratio, H2A3_12_17 K15me1: 0.4848
Replicate 1, PF-9363 30
  Ratio, H2A1_12_17 unmod: 0.5053
  Ratio, H2A3_12_17 K15me1: 0.497
Replicate 2, PF-9363 0.1
  Ratio, H2A1_12_17 unmod: 0.484
  Ratio, H2A3_12_17 K15me1: 0.4685
Replicate 2, PF-9363 1
  Ratio, H2A1_12_17 unmod: 0.4972
  Ratio, H2A3_12_17 K15me1: 0.4788
Replicate 2, PF-9363 10
  Ratio, H2A1_12_17 unmod: 0.498
  Ratio, H2A3_12_17 K15me1: 0.4832
